Test results reported in patent publication US11369599B2, “Melt-extruded solid dispersions containing an apoptosis-inducing agent” (AbbVie Inc., priority 2014, dated 2022).
Where two headings read alike, the source gives them in different places. One block for each compound: values may come before it.

Columns and labels:
[1] = First-in-human Phase 1 study (safety, PK) in relapsed or refractory CLL; assay type: in vivo; details: for AUC(0-inf): read-out: AUC (AUCINF)
Experimental: Three subjects were enrolled in the first cohort of CLL arm.
Subject 1: bulky disease, initial dose=200 mg
Subject 2: non-bulky disease, initial dose=200 mg
Subject 3: bulky disease, initial dose=100 mg
The dosing scheme for CLL arm was as follows: single dose on Week 1 Day −3; QD dose started on Week 1 Day 1. PK sampling was done on Week 1 Day −3 and Week 3 Day 1.

[2] = target: Bcl-2 protein (Homo sapiens (Human), UniProt P10415); assay: TR-FRET (Time-Resolved Fluorescence-Resonance-Energy-Transfer) Bcl-2 binding assay
Chain of Bcl-2 protein (P10415 whole entry): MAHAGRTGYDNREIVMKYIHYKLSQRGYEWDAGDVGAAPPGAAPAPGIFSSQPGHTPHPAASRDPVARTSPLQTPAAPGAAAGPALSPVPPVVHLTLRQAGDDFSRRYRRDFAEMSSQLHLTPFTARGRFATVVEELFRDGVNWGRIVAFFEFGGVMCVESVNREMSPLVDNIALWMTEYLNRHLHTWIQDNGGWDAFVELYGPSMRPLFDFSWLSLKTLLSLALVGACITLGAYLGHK
Text: The smaller the Ki value, the greater is the binding affinity.

[3] = log D at pH 7.4 by an HPLC method; assay type: physicochemical
[4] = human CLL, Week 1 Day-3 single dose, Mean of 3 subjects
[5] = human CLL, Week 1 Day-3 single dose, Subject 1, 200 mg
[6] = human CLL, Week 1 Day-3 single dose, Subject 2, 200 mg
[7] = human CLL, Week 1 Day-3 single dose, Subject 3, 100 mg
[8] = human CLL, Week 3 Day 1, QD dosing, ID 101, 150 mg
[9] = human, plasma, oral, 100 mg, human CLL, Week 1 Day-3 single dose, Subject 3, 100 mg
[10] = human, plasma, oral, 200 mg, human CLL, Week 1 Day-3 single dose, Subject 1, 200 mg
[11] = human, plasma, oral, 200 mg, human CLL, Week 1 Day-3 single dose, Subject 2, 200 mg

Structure (SMILES): CC1(C)CCC(CN2CCN(c3ccc(C(=O)NS(=O)(=O)c4ccc(NCC5CCOCC5)c([N+](=O)[O-])c4)c(Oc4cnc5[nH]ccc5c4)c3)CC2)=C(c2ccc(Cl)cc2)C1 [Compound 5, 4-(4-{[2-(4-chlorophenyl)-4,4-dimethylcyclohex-1-en-1-yl]methyl}piperazin-1-yl)-N-({3-nitro-4-[(tetrahydro-2H-pyran-4-ylmethyl)amino]phenyl}sulfonyl)-2-(1H-pyrrolo[2,3-b]pyridin-5-yloxy)benzamide]
CL/F [1, 4]: 4.7 L/h
Cmax/Dose [1, 4]: 0.008 (μg/mL)/mg
CL/F [1, 5]: 8.6 L/h
Cmax/Dose [1, 5]: 0.0037 (μg/mL)/mg
Tmax ([1]; human CLL, Week 1 Day-3 single dose, Subject 1, 200 mg, 50 mg tablets): 6 h
CL/F [1, 6]: 2.6 L/h
Cmax/Dose [1, 6]: 0.0079 (μg/mL)/mg
CL/F [1, 7]: 2.8 L/h
Cmax/Dose [1, 7]: 0.0119 (μg/mL)/mg
CL/F [1, 8]: 7.1 L/h
Cmax/Dose [1, 8]: 0.0089 (μg/mL)/mg
Tmax [1, 8]: 8 h
time to reach Cmax ([1]; human subjects): around 7 hours
predicted AUC ([1]; human, 200 mg dose, predicted): 30 µg·h/mL
observed AUC versus predicted AUC ([1]; human, normalized to 200 mg dose): about 2 fold
Cmax [1, 9]: 1190 ng/mL
AUC(0-inf) [1, 9]: 36300 ng·h/mL
half-life ([1]; human, plasma, oral, 100 mg, human CLL, Week 1 Day-3 single dose, Subject 3, 100 mg, read-out: t1/2 (converted)): 1330 min
Cmax ([1]; human, plasma, oral, 150 mg, human CLL, Week 3 Day 1, QD dosing, ID 101, 150 mg): 1340 ng/mL
AUC ([1]; human, plasma, oral, 150 mg, read-out: AUC (AUCss,24)): 21100 ng·h/mL
Cmax [1, 10]: 730 ng/mL
AUC(0-inf) [1, 10]: 23300 ng·h/mL
half-life ([1]; human, plasma, oral, 200 mg, human CLL, Week 1 Day-3 single dose, Subject 1, 200 mg, read-out: t1/2 (converted)): 1840 min
Cmax [1, 11]: 1570 ng/mL
AUC(0-inf) [1, 11]: 76000 ng·h/mL
half-life ([1]; human, plasma, oral, 200 mg, human CLL, Week 1 Day-3 single dose, Subject 2, 200 mg, read-out: t1/2 (converted)): 3050 min
half-life ([1]; human, plasma, oral, human CLL, Week 1 Day-3 single dose, Harmonic Mean of 3 subjects, read-out: t1/2 (converted)): 1840 min
half-life ([1]; human, plasma, oral, human subjects, observed, read-out: terminal elimination half-life (converted)): 1860 min
clearance, predicted value ([1]; human, predicted): 10 L/h
terminal elimination half-life, predicted value ([1]; human, predicted): 15 h
Tmax ([1]; plasma, oral, human CLL, Week 1 Day-3 single dose, Mean of 3 subjects, read-out: Tmax): 7.3 h
clearance ([1]; plasma, oral, human subjects, observed): 78.3 mL/min
adverse event after the first dose ([1]; three CLL subjects, first cohort, initial dose 100-200 mg, 50 mg tablet form, all subjects): tumor lysis syndrome

Ki [2]: 0.19 nM
Structure (SMILES): COCCON1C=C(Cl)C=C(S(=O)(=O)NC(=O)c2ccc(N3CCN(CC4=C(c5ccc(Cl)cc5)CC(C)(C)CC4)CC3)cc2Oc2cnc3[nH]ccc3c2)C1 [Compound 292, N-{[5-chloro-1-(2-methoxyethoxy)pyridin-3-yl]sulfonyl}-4-(4-{[2-(4-chlorophenyl)-4,4-dimethylcyclohex-1-en-1-yl]methyl}piperazin-1-yl)-2-(1H-pyrrolo[2,3-b]pyridin-5-yloxy)benzamide]

log D [3]: 5.48
Structure (SMILES): CC1(C)CCC(CN2CCN(c3ccc(C(=O)NS(=O)(=O)c4ccc(NCC5CCC(C)(O)CC5)c([N+](=O)[O-])c4)c(Oc4cnc5[nH]ccc5c4)c3)CC2)=C(c2ccc(Cl)cc2)C1 (stereo not drawn) [Compound 337, 4-(4-{[2-(4-chlorophenyl)-4,4-dimethylcyclohex-1-en-1-yl]methyl}piperazin-1-yl)-N-[(4-{[(trans-4-hydroxy-4-methylcyclohexyl)methyl]amino}-3-nitrophenyl)sulfonyl]-2-(1H-pyrrolo[2,3-b]pyridin-5-yloxy)benzamide]

log D [3]: 5.67
Structure (SMILES): CC1(C)CCC(CN2CCN(c3ccc(C(=O)NS(=O)(=O)c4ccc(NCC5CCC(C)(O)CC5)c([N+](=O)[O-])c4)c(Oc4cnc5[nH]ccc5c4)c3)CC2)=C(c2ccc(Cl)cc2)C1 (stereo not drawn) [Compound 338, 4-(4-{[2-(4-chlorophenyl)-4,4-dimethylcyclohex-1-en-1-yl]methyl}piperazin-1-yl)-N-[(4-{[(cis-4-hydroxy-4-methylcyclohexyl)methyl]amino}-3-nitrophenyl)sulfonyl]-2-(1H-pyrrolo[2,3-b]pyridin-5-yloxy)benzamide]

Structure (SMILES): CC1(O)CCC(COc2ncc(S(=O)(=O)NC(=O)c3ccc(N4CCN(CC5=C(c6ccc(Cl)cc6)CC6(CC5)CC6)CC4)cc3Oc3cnc4[nH]ccc4c3)cc2Cl)CC1 (stereo not drawn) [Compound 341, N-({5-chloro-6-[(trans-4-hydroxy-4-methylcyclohexyl)methoxy]pyridin-3-yl}sulfonyl)-4-(4-{[5-(4-chlorophenyl)spiro[2.5]oct-5-en-6-yl]methyl}piperazin-1-yl)-2-(1H-pyrrolo[2,3-b]pyridin-5-yloxy)benzamide]
Ki [2]: < 0.01 nM

Structure (SMILES): CC1(C)CCC(CN2CCN(c3ccc(C(=O)NS(=O)(=O)c4cnc(OCC5(F)CCC(O)CC5)c(Cl)c4)c(Oc4cnc5[nH]ccc5c4)c3)CC2)=C(c2ccc(Cl)cc2)C1 (stereo not drawn) [Compound 350, N-({5-chloro-6-[(cis-1-fluoro-4-hydroxycyclohexyl)methoxy]pyridin-3-yl}sulfonyl)-4-(4-{[2-(4-chlorophenyl)-4,4-dimethylcyclohex-1-en-1-yl]methyl}piperazin-1-yl)-2-(1H-pyrrolo[2,3-b]pyridin-5-yloxy)benzamide]
Ki [2]: < 0.01 nM

Structure (SMILES): CC1(C)CCC(CN2CCN(c3ccc(C(=O)NS(=O)(=O)c4ccc(OCC5CCC(C)(O)CC5)c(Cl)c4)c(Oc4cnc5[nH]ccc5c4)c3)CC2)=C(c2ccc(Cl)cc2)C1 (stereo not drawn) [Compound 362, N-({3-chloro-4-[(trans-4-hydroxy-4-methylcyclohexyl)methoxy]phenyl}sulfonyl)-4-(4-{[2-(4-chlorophenyl)-4,4-dimethylcyclohex-1-en-1-yl]methyl}piperazin-1-yl)-2-(1H-pyrrolo[2,3-b]pyridin-5-yloxy)benzamide]
Ki [2]: 0.016 nM

Structure (SMILES): CC1(C)CCC(CN2CCN(c3ccc(C(=O)NS(=O)(=O)c4cnc(NCC5CCC(C)(O)CC5)c([N+](=O)[O-])c4)c(Oc4cnc5[nH]ccc5c4)c3)CC2)=C(c2ccc(Cl)cc2)C1 (stereo not drawn) [Compound 371, 4-(4-{[2-(4-chlorophenyl)-4,4-dimethylcyclohex-1-en-1-yl]methyl}piperazin-1-yl)-N-[(6-{[(trans-4-hydroxy-4-methylcyclohexyl)methyl]amino}-5-nitropyridin-3-yl)sulfonyl]-2-(1H-pyrrolo[2,3-b]pyridin-5-yloxy)benzamide]
Ki [2]: < 0.001 nM

Structure (SMILES): CC1(C)CCC(CN2CCN(c3ccc(C(=O)NS(=O)(=O)c4cnc(NCC5CCC(C)(O)CC5)c([N+](=O)[O-])c4)c(Oc4cnc5[nH]ccc5c4)c3)CC2)=C(c2ccc(Cl)cc2)C1 (stereo not drawn) [Compound 376, 4-(4-{[2-(4-chlorophenyl)-4,4-dimethylcyclohex-1-en-1-yl]methyl}piperazin-1-yl)-N-[(6-{[(cis-4-hydroxy-4-methylcyclohexyl)methyl]amino}-5-nitropyridin-3-yl)sulfonyl]-2-(1H-pyrrolo[2,3-b]pyridin-5-yloxy)benzamide]
Ki [2]: < 0.001 nM

Structure (SMILES): COC1(C)CCC(c2ccc(Cl)cc2)=C(CN2CCN(c3ccc(C(=O)NS(=O)(=O)c4ccc(NCC5CCC(C)(O)CC5)c([N+](=O)[O-])c4)c(Oc4cnc5[nH]ccc5c4)c3)CC2)C1 (stereo not drawn) [Compound 377, 4-(4-{[2-(4-chlorophenyl)-5-methoxy-5-methylcyclohex-1-en-1-yl]methyl}piperazin-1-yl)-N-[(4-{[(trans-4-hydroxy-4-methylcyclohexyl)methyl]amino}-3-nitrophenyl)sulfonyl]-2-(1H-pyrrolo[2,3-b]pyridin-5-yloxy)benzamide]
Ki [2]: < 0.001 nM
